From patent US20100184802A1, “Bicycloheteroaryl Compounds as P2X7 Modulators and Uses Thereof” (priority 2006, published 2010)

Assays:
[1] = target: T1, P2X7 receptor (IL-1β release from THP-1 cells) (Homo sapiens, UniProt Q99572); assay: IL-1β release assay in differentiated THP-1 cells stimulated with BzATP (Example 9); type: cell-based; conditions: for inhibition at 0.3 µM: 0.3 μM concentration; for inhibition at 0.3 µM / inhibition at 0.1 µM: BzATP 250 uM, read-out: IL-1β % Inhib. @ 0.3 or 0.1 μM; for IC50: released IL-1β as in Example 9, four parameter logistic fit; for inhibition at 0.1 µM: 0.1 μM concentration
T1 construct: host or cells: THP-1 cells differentiated with LPS and IFN-γ
T1 sequence (Q99572 1-595): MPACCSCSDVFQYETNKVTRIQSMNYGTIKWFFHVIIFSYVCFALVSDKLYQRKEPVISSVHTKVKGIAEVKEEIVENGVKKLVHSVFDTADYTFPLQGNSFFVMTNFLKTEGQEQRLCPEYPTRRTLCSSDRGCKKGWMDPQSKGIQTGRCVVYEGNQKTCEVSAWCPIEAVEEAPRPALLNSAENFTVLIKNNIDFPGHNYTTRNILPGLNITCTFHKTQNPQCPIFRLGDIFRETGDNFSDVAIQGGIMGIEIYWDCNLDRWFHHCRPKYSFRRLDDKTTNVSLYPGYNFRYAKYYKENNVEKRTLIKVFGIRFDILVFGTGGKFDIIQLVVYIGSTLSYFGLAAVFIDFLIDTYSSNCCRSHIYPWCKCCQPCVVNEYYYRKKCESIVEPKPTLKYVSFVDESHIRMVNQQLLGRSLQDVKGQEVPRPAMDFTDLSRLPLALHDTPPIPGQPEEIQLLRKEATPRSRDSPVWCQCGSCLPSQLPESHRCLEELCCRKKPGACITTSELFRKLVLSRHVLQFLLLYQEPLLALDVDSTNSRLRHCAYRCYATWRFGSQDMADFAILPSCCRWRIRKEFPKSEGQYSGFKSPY
Method: The cells are then pretreated for 30 minutes with the compound of interest at the appropriate concentration in RPMI media containing 100 IU/mL penicillin, 100 ug/mL streptomycin. […] 30 uL of cell supernatant is then collected and IL-1β levels determined via ELISA (R&D systems Cat. #HSLB50) according to manufacturer's recommendations using the Tecan Safire plate reader. Background adjusted IL-1β levels of drug treated and non-treated cells are used to calculate the percent inhibition.
The compounds set forth in Table 1 were tested for activity in a cellular model as described herein. […] Measurements were made and IC50 values, presented in Table 2, below, were determined by fitting the data to a four parameter logistic equation using GraphPad Prism software (GraphPad Software, Inc). The equation may be expressed by the following formula:
Y=Bottom+(Top−Bottom)/(1+10̂((Log EC50−X)*HillSlope))
Where X is the logarithm of concentration, Y is the response and Y starts at Bottom and goes to Top with a sigmoid shape.

[2] = Half-life in human liver microsomes (HLM); type: in vitro ADME; conditions: human liver microsomes (HLM, HL101); human liver microsomes 0.78 mg/mL, 1 μM compound, NADPH, pH 7.4, 37° C.
Method: Test compounds (1 μM) are incubated with 3.3 mM MgCl2 and 0.78 mg/mL HLM (HL101) in 100 mM potassium phosphate buffer (pH 7.4) at 37° C. on the 96-deep well plate. The reaction mixture is split into two groups, a non-P450 and a P450 group. NADPH is only added to the reaction mixture of the P450 group. An aliquot of samples of P450 group is collected at 0, 10, 30, and 60 min time point, where 0 min time point indicated the time when NADPH is added into the reaction mixture of P450 group. […] Collected aliquots are extracted with acetonitrile solution containing an internal standard. […] The compound concentration in supernatant is measured by LC/MS/MS system.
The half-life value is obtained by plotting the natural logarithm of the peak area ratio of compounds/internal standard versus time. The slope of the line of best fit through the points yields the rate of metabolism (k). This is converted to a half-life value using following equations:

| SMILES | inhibition at 0.3 µM [1] [%] | IC50 [1] [nM] | half-life at 1 μM [2] [min] | inhibition at 0.1 µM [1] [%] |
| --- | --- | --- | --- | --- |
| O=C(CC12CC3CC(CC(C3)C1)C2)Nc1cccc2c1CCN(CC1CCNCC1)C2=O [Compound 512] | > 76 | 7.62 | 44.4 |  |
| CC12CC3CC(C)(C1)CC(CC(=O)Nc1cccc4c(=O)n(C(CO)CO)ccc14)(C3)C2 [Compound 519] | > 76 | 0.11 | 42.6 |  |
| C[C@H](CO)n1ccc2c(NC(=O)CC34CC5CC(CC(C5)C3)C4)cccc2c1=O [Compound 522] | > 76 | 1.81 | 28.8 |  |
| O=C(CC12CC3CC(CC(C3)C1)C2)Nc1cccc2c(=O)n(C(CO)Cc3c[nH]cn3)ccc12 (stereo not drawn) [Compound 515] | > 76 | 1.3 | 91.2 |  |
| CC(CO)n1ccc2c(NC(=O)CC34CC5CC(CC(C5)C3)C4)cccc2c1=O (stereo not drawn) [Compound 517, 2-Adamantan-1-yl-N-[2-(2-hydroxy-1-methyl-ethyl)-1-oxo-1,2-dihydro-isoquinolin-5-yl]-acetamide] | > 76 | 0.33 | 26.4 |  |
| CC(C)[C@H](C(=O)NC1CC1)n1ccc2c(NC(=O)CC3CCCCCC3)cccc2c1=O [Compound 595, (R)-2-[5-(2-Cycloheptyl-acetylamino)-1-oxo-1H-isoquinolin-2-yl]-N-cyclopropyl-3-methyl-butyramide] | > 76 | 20.7 |  |  |
| CC(C)[C@H](C(N)=O)n1ccc2c(NC(=O)CC3CCCCCC3)cccc2c1=O [Compound 597, (R)-2-[5-(2-Cycloheptyl-acetylamino)-1-oxo-1H-isoquinolin-2-yl]-3-methyl-butyramide] | > 76 | 2.38 |  |  |
| C[C@@H](C(N)=O)n1ccc2c(NC(=O)CC34CC5CC(CC(O)(C5)C3)C4)cccc2c1=O [Compound 574] | 0 to 25 | > 1000 |  |  |
| C[C@H](C(=O)O)n1ccc2c(NC(=O)CC3CCCCCC3)cccc2c1=O [Compound 607, (R)-2-[5-(2-Cycloheptyl-acetylamino)-1-oxo-1H-isoquinolin-2-yl]-propionic acid] | > 76 | 92.1 |  |  |
| CC1(C)CCCC(O)(CC(=O)Nc2cccc3c(=O)n(C(CO)CO)ccc23)C1 (stereo not drawn) [Compound 553] | 51 to 75 | 203 |  |  |
| CC(C)[C@H](C(=O)O)n1ccc2c(NC(=O)CC34CC5CC(CC(C5)C3)C4)cccc2c1=O [Compound 603] | > 76 | 22 |  |  |
| CC(C)[C@H](C(N)=O)n1ccc2c(NC(=O)CC34CC5CC(CC(C5)C3)C4)cccc2c1=O [Compound 528] | > 76 | 0.181 |  |  |
| O=C(CC1(O)CCCCCC1)Nc1cccc2c(=O)n(C[C@H]3CCCN3)ccc12 [Compound 578, 2-(1-Hydroxy-cycloheptyl)-N-(1-oxo-2-(R)-1-pyrrolidin-2-ylmethyl-1,2-dihydro-isoquinolin-5-yl)-acetamide] | > 76 | 111 |  |  |
| CC12CC3CC(C)(C1)CC(CC(=O)Nc1cccc4c(=O)n(CC(N)=O)ccc14)(C3)C2 [Compound 523] | > 76 | 1.5 |  |  |
| CC(O)Cn1ccc2c(NC(=O)[C@H]3CC[C@H](C)CC3)cccc2c1=O (stereo partly drawn) [Compound 563] |  |  |  | 0 to 25 |
| NC(=O)Cn1ccc2c(NC(=O)CC3(O)CCCCCC3)cccc2c1=O [Compound 562] | 26 to 50 | 427 |  |  |
| CC(C)(O)Cn1ccc2c(NC(=O)CC3C[C@@H]4CC[C@H]3C4)cccc2c1=O (stereo partly drawn) [Compound 569] |  |  |  | 26 to 50 |
| C[C@@H](C(N)=O)n1ccc2c(NC(=O)CC3(O)CC(C)(C)CC(C)(C)C3)cccc2c1=O [Compound 556] | 51 to 75 | 257 |  |  |
| CC(C)(O)Cn1ccc2c(NC(=O)C3C[C@@H]4CC[C@H]3C4)cccc2c1=O (stereo partly drawn) [Compound 571] |  |  |  | 26 to 50 |
| C[C@@H](C(N)=O)n1ccc2c(NC(=O)CC3CCCCCC3)cccc2c1=O [Compound 554] | > 76 | 12.3 |  |  |
| C[C@H]1CC[C@H](C(=O)Nc2cccc3c(=O)n(CC4(O)CCCCC4)ccc23)CC1 [Compound 539] |  |  |  | 0 to 25 |
| O=C(CC12CC3CC(CC(C3)C1)C2)Nc1cccc2c1CCN(CCO)C2=O [Compound 549, 2-Adamantan-1-yl-N-[2-(2-hydroxy-ethyl)-1-oxo-1,2,3,4-tetrahydro-isoquinolin-5-yl]-acetamide] | > 76 | 1.37 |  |  |
| C[C@H](CO)N1CCc2c(NC(=O)CC34CC5CC(C)(CC(C)(C5)C3)C4)cccc2C1=O [Compound 534] | > 76 | 11.5 |  |  |
| CC(C)[C@H](C(=O)NC1CC1)n1ccc2c(NC(=O)CC34CC5CC(CC(C5)C3)C4)cccc2c1=O [Compound 594] | 26 to 50 | 303 |  |  |
| CC(C)C[C@H](CO)n1ccc2c(NC(=O)CC3CCCCCC3)cccc2c1=O [Compound 590] | > 76 | 8.3 |  |  |
| NC(=O)[C@@H](CC1CCCCC1)n1ccc2c(NC(=O)CC34CC5CC(CC(C5)C3)C4)cccc2c1=O [Compound 513] | > 76 | 33.7 |  |  |

Next, values leading:

| inhibition at 0.3 µM [1] [%] | IC50 [1] [nM] | half-life at 1 μM [2] [min] | inhibition at 0.1 µM [1] [%] | SMILES |
| --- | --- | --- | --- | --- |
| > 76 | 1.34 | 27 |  | O=C(CC12CC3CC(CC(C3)C1)C2)Nc1cccc2c(=O)n(CCO)ccc12 [Compound 511] |
| > 76 | 5.59 |  |  | CC(C)C[C@H](CO)n1ccc2c(NC(=O)CC3(O)CCCCCC3)cccc2c1=O [Compound 596] |
| > 76 | 6.16 |  |  | C[C@H](C(=O)Nc1cccc2c(=O)n([C@H](C)C(N)=O)ccc12)C1CCCCCC1 [Compound 609] |
| > 76 | 40.8 |  |  | NC(=O)[C@H](CO)n1ccc2c(NC(=O)CC3CCCCCC3)cccc2c1=O [Compound 575, (S)-2-[5-(2-Cycloheptyl-acetylamino)-1-oxo-1H-isoquinolin-2-yl]-3-hydroxy-propionamide] |
| > 76 | 1.86 |  |  | CC(C)C(CO)n1ccc2c(NC(=O)CC3CCCCCC3)cccc2c1=O (stereo not drawn) [Compound 538] |
| 0 to 25 | 760 |  |  | O=C(CC1(O)CCCCCC1)Nc1cccc2c(=O)n(C(CO)CO)ccc12 [Compound 552] |
| 0 to 25 | 906 |  |  | O=C(CC1CCCCC1)Nc1cccc2c(=O)n(CCO)ccc12 [Compound 545] |
| 0 to 25 | > 1000 |  |  | CC(C)(C)OC(=O)N1CCC(CC(=O)Nc2cccc3c(=O)n(CCO)ccc23)CC1 [Compound 532] |
| > 76 | 0.204 |  |  | C[C@@H](CO)n1ccc2c(NC(=O)CC34CC5CC(C)(CC(C)(C5)C3)C4)cccc2c1=O [Compound 524] |
| > 76 | 0.929 |  |  | C[C@H](C(N)=O)n1ccc2c(NC(=O)CC3CC(C)(C)CC(C)(C)C3)cccc2c1=O [Compound 588] |
| > 76 | 1.04 |  |  | NC(=O)CCn1ccc2c(NC(=O)CC34CC5CC(CC(C5)C3)C4)cccc2c1=O [Compound 510] |
| 26 to 50 | 355 |  |  | C[C@@H](C(N)=O)n1ccc2c(NC(=O)CC3(O)CCCCCC3)cccc2c1=O [Compound 557] |
| > 76 | 1.8 |  |  | CC1(C)CC(CC(=O)Nc2cccc3c(=O)n(CCO)ccc23)CC(C)(C)C1 [Compound 584, N-[2-(2-Hydroxy-ethyl)-1-oxo-1,2-dihydro-isoquinolin-5-yl]-2-(3,3,5,5-tetramethylcyclohexyl)-acetamide] |
|  |  |  | 26 to 50 | CC(O)Cn1ccc2c(NC(=O)C3C[C@@H]4CC[C@H]3C4)cccc2c1=O (stereo partly drawn) [Compound 567] |
